Source: patent US6562828B1, “Amidine compounds” (Japan Tobacco Inc., priority 1998, dated 2003)
Structures can show the parent of a compound that is named as a salt.

Key:
[1] = target: T1, Human FIIa (Homo sapiens, UniProt P00734); assay: Determination of anti-factor IIa (FIIa) activity, synthetic substrate S-2238; format: biochemical; details: S-2238, 37° C., pH 8.4, read-out: Experimental Example 2: anti-FIIa activity, IC50
T1 construct: purchased Sigma

[2] = tested on: normal plasma; assay: Determination of prothrombin time (PT), rat plasma; format: biochemical
Experimental: (§1) Determination of prothrombin time (PT)
(§2) Blood was taken from mouse, rat, crab-eating monkey and healthy human volunteers, and citric acid was added. The blood was centrifuged at 4° C. and 2000 G for 15 min to obtain normal plasma of various animals.
(§3) Purified water (5 μl) containing various concentrations of test compound was added to plasma (45 μl) and the resultant mixtures were used as samples. […] (Baxter) was prepared and heated at […] for 5 min, and a sample (50 μl) was admixed with the thrombin reagent (100 μl). The time (PT) until precipitation of fibrin was measured. The drug concentration that doubled the PT hours of the drug untreated group was calculated and taken as CT2.

[3] = target: T2, Human FXa (Homo sapiens, UniProt P00742); assay: Oral administration test in monkey, human FXa inhibitory activity in plasma; format: in vivo; details: crab-eating monkey, mean ± S.D., n = 3
T2 construct: Human FXa [Enzyme research Laboratories (USA)] enzyme; purchased Enzyme Research Laboratories (USA)
T2 sequence (P00742 235-488 limits assumed): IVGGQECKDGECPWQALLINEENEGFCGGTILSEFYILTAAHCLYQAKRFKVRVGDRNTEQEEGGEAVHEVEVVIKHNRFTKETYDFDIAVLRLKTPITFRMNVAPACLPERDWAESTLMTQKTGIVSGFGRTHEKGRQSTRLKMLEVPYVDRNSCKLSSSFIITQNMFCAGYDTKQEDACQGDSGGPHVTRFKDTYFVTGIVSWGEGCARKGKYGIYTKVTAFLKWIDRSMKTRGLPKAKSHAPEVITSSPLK
T2 sequence (P00742 41-179 limits assumed): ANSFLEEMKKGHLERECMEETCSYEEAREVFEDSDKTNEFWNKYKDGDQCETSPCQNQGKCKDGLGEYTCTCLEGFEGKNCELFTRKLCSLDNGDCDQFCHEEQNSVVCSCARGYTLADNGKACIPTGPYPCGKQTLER
Experimental: (§4) Human FXa inhibitory activity was measured as follows. Human FXa [Enzyme research Laboratories (USA)] enzyme (40 μl, 0.5 U/ml) and a 4-fold diluted plasma sample (40 μl) were incubated in 0.1M Tris-0.2M NaCl buffer (pH 8.4) (40 μl) at 37° C. for 10 min. A synthetic substrate S-2222 (Daiichi Pure Chemical (Tokyo, Japan), 40 μl) adjusted to 0.8 mM was added and the mixture was incubated at 37° C. for 5 min. The reaction was stopped by addition of 60% acetic acid (40 μl) and absorbance at 405 nm was measured by Model 3550 (BIO-RAD). For the control, serum or plasma obtained prior to blood sampling was used for measurement. Human FXa inhibitory activity was calculated as inhibition percentage (%) against control.
Oral Administration Tests in Monkey
A test compound dissolved in distilled water was orally administered to monkey (carb-eating monkey, body weight 3.5-4.5 kg) and the activity of the test compound was evaluated based on the human FXa inhibitory activity in plasma as an indicator.
(§5) At 30, 60, 120, 240, 480 min from the oral administration, blood was taken from the saphenous vein with the passage of time and the blood was centrifuged at 2000 G for 10 min. The obtained citric acid plasma was used for the determination. Human FXa inhibitory activity was determined in the same manner as in the test by intravenous administration.

[4] = target: T2, Human FXa; assay: Intravenous administration test in monkey, human FXa inhibitory activity in plasma; format: in vivo; details: crab-eating monkey, i.v., mean ± S.D., n = 3
Experimental: as §4
Intravenous Administration Tests in Monkey
A test compound dissolved in physiological saline was intravenously administered to monkey (crab-eating monkey, body weight 3.5-4.5 kg) and the activity of the test compound was evaluated based on the human FXa inhibitory activity in plasma as an indicator.
as §5, with “At 10,” for “At”, “180” for “240, 480”, “intravenous” for “oral”, “using mouse.” for “by intravenous administration.”

[5] = tested on: normal plasma; assay: Determination of prothrombin time (PT), mouse plasma; format: biochemical
Experimental: as §1, §2, §3

[6] = target: T2, Human FXa; assay: Oral administration test in mouse, human FXa inhibitory activity in serum; format: in vivo; details: ICR mice, mean ± S.D., n = 3
Experimental: as §4
Oral Administration Tests in Mouse
A test compound dissolved in distilled water was orally administered to ICR mice (body weight 20-30 g, 4-6 weeks old) and the activity of the test compound was evaluated based on the human FXa inhibitory activity in serum as an indicator.
At 30, 60, 120, 180 min from the oral administration, blood was taken from the eye ground using a hematocrit tube. The blood was centrifuged at 9000 G for 5 min and the obtained serum was used for the determination. Human FXa inhibitory activity was determined in the same manner as in the test by intravenous administration.

[7] = tested on: normal plasma; assay: Determination of prothrombin time (PT), human plasma; format: biochemical
Experimental: as §1, §2, §3

[8] = tested on: decrease of platelets and formation of FDP by thromboplastin; assay: Blood coagulation model in rat (thromboplastin); format: in vivo; details: i.v. 10 min before thromboplastin, mean ± S.D, n = 3; for PLT value: counted 10 min later; for FDP value: measured 30 min later
Experimental: Blood Coagulation Model in Rat
Intravenous administration of thromboplastin (Sigma) to rat promotes coagulation system, which in turn decreases platelets and increases fibrin degradation product (FDP). Thus, the test compound was intravenously administered 10 min before thromboplastin administration and the inhibitory effects of the test compound on the decrease of platelets and the formation of FDP by thromboplastin were studied. The thromboplastin administered had such concentration as to form clots within 20 seconds from the addition of one plasma dose to two thromboplastin doses and was administered in 1 ml/kg dose. Platelets were counted (PLT value) 10 min later on a blood cell counter sysmex F-800 [Dade International Inc. (USA)], and FDP was measured 30 min later using FDP latex reagent for serum [Teikoku Hormone Mfg. Co., Ltd. (Tokyo, Japan)]. In every Example, the PLT value of the thromboplastin untreated group was (106±13)×10^4 and the FDP value of this group was 0±0 μg/ml.

[9] = target: T2, Human FXa; assay: Intravenous administration test in mouse, human FXa inhibitory activity in serum; format: in vivo; details: ICR mice, i.v., mean ± S.D., n = 3
Experimental: Intravenous Administration Tests in Mouse
A test compound dissolved in physiological saline was intravenously administered to ICR mice (body weight 20-30 g, 4-6 weeks old) and the activity of the test compound was evaluated based on the human FXa inhibitory activity in serum as an indicator.
At 10, 30, 60, 120 min from the intravenous administration, blood was taken from the eye ground using a hematocrit tube. The blood was centrifuged at 9000 G for 5 min and the obtained serum was used for the determination.
as §4

- IC50 [1]: > 10 µM
- inhibition at 10 mg/kg ([3]; 30 minutes): 62 ± 53%
- inhibition at 10 mg/kg ([3]; 60 minutes): 62 ± 51%
- inhibition at 10 mg/kg ([3]; 120 minutes): 83 ± 13%
- inhibition at 10 mg/kg ([3]; 240 minutes): 68 ± 16%
- inhibition at 10 mg/kg ([3]; 480 minutes): 27 ± 10%
- inhibition at 1 mg/kg ([4]; 10 minutes): 90 ± 6%
- inhibition at 1 mg/kg ([4]; 30 minutes): 90 ± 1%
- inhibition at 1 mg/kg ([4]; 60 minutes): 86 ± 2%
- inhibition at 1 mg/kg ([4]; 120 minutes): 77 ± 6%
- inhibition at 1 mg/kg ([4]; 180 minutes): 65 ± 12%
- inhibition at 10 mg/kg ([6]; 30 minutes): 46 ± 3%
- inhibition at 10 mg/kg ([6]; 60 minutes): 34 ± 7%
- inhibition at 10 mg/kg ([6]; 120 minutes): 20%
- inhibition at 10 mg/kg ([6]; 180 minutes): 21 ± 5%
- inhibition at 0.1 mg/kg ([9]; 10 minutes): 31 ± 3%
- inhibition at 0.1 mg/kg ([9]; 30 minutes): 10 ± 3%
- inhibition at 0.1 mg/kg ([9]; 60 minutes): 0%
- inhibition at 0.1 mg/kg ([9]; 120 minutes): 0%
- inhibition at 0.3 mg/kg ([9]; 10 minutes): 65 ± 1%
- inhibition at 0.3 mg/kg ([9]; 30 minutes): 38 ± 5%
- inhibition at 0.3 mg/kg ([9]; 60 minutes): 16 ± 3%
- inhibition at 0.3 mg/kg ([9]; 120 minutes): 8 ± 4%
- inhibition at 1 mg/kg ([9]; 10 minutes): 70 ± 1%
- inhibition at 1 mg/kg ([9]; 30 minutes): 69 ± 2%
- inhibition at 1 mg/kg ([9]; 60 minutes): 41 ± 10%
- inhibition at 1 mg/kg ([9]; 120 minutes): 1 ± 3%
SMILES: CC(=N)N1CCC(Oc2ccc(N(Cc3nc4cc(C(=N)N)ccc4n3CC(=O)N[C@@H](C)c3ccccc3)C(=O)c3ccc(C(=O)O)cc3)cc2)CC1 [Example 17, (S)-4-[N-[5-Amidino-1-(1-phenylethylcarbamoylmethyl)benzimidazole-2-ylmethyl]-N-[4-(1-acetimidoylpiperidin-4-yloxy)phenyl]carbamoyl]benzoic Acid Dihydrochloride]
- CT2 (drug concentration that doubled the PT) [2]: 2 µM
- CT2 (drug concentration that doubled the PT) [5]: 2 µM
- CT2 (drug concentration that doubled the PT) [7]: 0.5 µM
- PLT value ([8]; dose 0.01 mg/kg): 41 ± 13 ×10^4 blood platelet/μl
- FDP value ([8]; dose 0.01 mg/kg): 6 ± 3 µg/mL
- PLT value ([8]; dose 0.03 mg/kg): 92 ± 11 ×10^4 blood platelet/μl
- FDP value ([8]; dose 0.03 mg/kg): 1 ± 1 µg/mL
- PLT value ([8]; dose 1 mg/kg): 108 ± 6 ×10^4 blood platelet/μl
- FDP value ([8]; dose 1 mg/kg): 0 ± 0 µg/mL
